Experimental data taken from patent publication US5545639A, “Method of inhibiting transformed cells” (The United States of America as represented by the …, priority 1994, dated 1996).

Experiments:
[1] = tested on: human tumor cell lines; assay: Example 5: dose response of growth of human tumor cell lines, overall panel; assay type: cell-based
Experimental: (§1) Indeed, 70% of the cell lines were shown not only to experience precluded growth, but cell death, when exposed to less then 100 μM of the active ingredient.

[2] = tested on: DMS 273; assay: Dose response of growth, tumor cell line; assay type: cell-based; details: Homo sapiens, DMS 273, small cell lung cancer
[3] = tested on: RPMT-8226; assay: Dose response of growth, tumor cell line; assay type: cell-based; details: Homo sapiens, RPMT-8226, leukemia
Experimental: as §1

[4] = tested on: HCT-15; assay: Dose response of growth, tumor cell line; assay type: cell-based; details: Homo sapiens, HCT-15, colon cancer
Experimental: as §1

[5] = tested on: SW-620; assay: Dose response of growth, tumor cell line; assay type: cell-based; details: Homo sapiens, SW-620, colon cancer
Experimental: as §1

[6] = tested on: K-562; assay: Dose response of growth, tumor cell line; assay type: cell-based; details: Homo sapiens, K562, K-562, leukemia
Experimental: as §1

[7] = tested on: XF 498; assay: Dose response of growth, tumor cell line; assay type: cell-based; details: Homo sapiens, XF498, XF 498, CNS cancer
Experimental: as §1

[8] = tested on: M19-MEL; assay: Dose response of growth, tumor cell line; assay type: cell-based; details: Homo sapiens, melanoma
Experimental: as §1

[9] = tested on: UACC-257; assay: Dose response of growth, tumor cell line; assay type: cell-based; details: Homo sapiens, UACC-257, melanoma
Experimental: as §1

[10] = tested on: MCF7; assay: Dose response of growth, tumor cell line; assay type: cell-based; details: Homo sapiens, MCF7, miscellaneous
Experimental: as §1

[11] = tested on: NCI-H522; assay: Dose response of growth, tumor cell line; assay type: cell-based; details: Homo sapiens, NCI-H522, non-small cell lung cancer
Experimental: as §1

[12] = tested on: UO-31; assay: Dose response of growth, tumor cell line; assay type: cell-based; details: Homo sapiens, UO-31, renal cancer
Experimental: as §1

[13] = tested on: KM20L2; assay: Dose response of growth, tumor cell line; assay type: cell-based; details: Homo sapiens, KM-20L2, KM20L2, colon cancer
Experimental: as §1

[14] = tested on: OVCAR-4; assay: Dose response of growth, tumor cell line; assay type: cell-based; details: Homo sapiens, OVCAR-4, ovarian cancer
Experimental: as §1

[15] = tested on: SN12C; assay: Dose response of growth, tumor cell line; assay type: cell-based; details: Homo sapiens, renal cancer
Experimental: as §1

[16] = tested on: NCI-H322M; assay: Dose response of growth, tumor cell line; assay type: cell-based; details: Homo sapiens, non-small cell lung cancer
Experimental: as §1

[17] = tested on: SNB-75; assay: Dose response of growth, tumor cell line; assay type: cell-based; details: Homo sapiens, SNB-75, CNS cancer
Experimental: as §1

[18] = tested on: IGROVI; assay: Dose response of growth, tumor cell line; assay type: cell-based; details: Homo sapiens, ovarian cancer
Experimental: as §1

[19] = tested on: HCT-116; assay: Dose response of growth, tumor cell line; assay type: cell-based; details: Homo sapiens, HCT-116, colon cancer
Experimental: as §1

[20] = tested on: HOP-62; assay: Dose response of growth, tumor cell line; assay type: cell-based; details: Homo sapiens, HOP-62, non-small cell lung cancer
Experimental: as §1

[21] = tested on: L1210 mouse cells; assay: Example 3: growth of L1210 mouse cells with bis(halomethyl)phenanthrolines plus copper, with or without BCS; assay type: cell-based; details: at highest concentration tested (3 μM); copper 10 μM, BCS 100 μM
Experimental: Bis(halomethyl)phenanthroline compounds were synthesized according to the method of Newkome et al., J. Org. Chem., 48, 5112-5114 (1983). Such compounds, namely, 2,9-bis(bromomethyl)phenanthroline and 2,9-bis(chloromethyl)phenanthroline, were added in the presence of copper, but with or without BCS (the copper chelator shown in Examples 1 and 2 to reduce inhibitory activity), to the culture media of L1210 mouse cells, using the same methods of Examples 1 and 2. The concentrations of copper and BCS used in these experiments were 10 μM and 100 μM, respectively. The growth of the cells as a percent of control were determined, and the results plotted in the graph of FIG. 3, wherein open squares (.quadrature.) represent the compound plus copper chelate and solid squares (.box-solid.) represent the compound together with both copper and BCS addition to the culture medium.

[22] = mouse
[23] = read-out: 50% Growth (Relative to Control)
[24] = read-out: No Growth (Relative to Control)

With `ClCc1ccc2ccc3ccc(CCl)nc3c2n1` [2,9-bis(chloromethyl)-1,10-phenanthroline] the IC (total growth inhibition) ([1]; Homo sapiens, average, majority of cell lines, read-out: average concentration to preclude growth of the transformed cells in vitro, majority of cell lines) was about 5.66 µM, the “cessation of growth of transformed cells” value ([1]; human tumor cell lines) was “nearly all transformed cells cease growth in the presence of micromolar concentrations” and the IC50 [2, 23] was 2840 nM. The IC100 [2, 24] was over 100 µM, the IC50 [3, 23] was 1250 nM and the CC50 ([3]; read-out: 50% Loss (50% kill)) was over 100 µM. For the same compound, the IC100 [3, 24] was 36.6 µM, the IC50 [4, 23] was 1950 nM and the CC50 ([4]; read-out: 50% Loss (50% kill)) was over 100 µM. For the same compound, the IC100 [4, 24] was 6.47 µM, the IC50 [5, 23] was 3.18 µM and the CC50 ([5]; read-out: 50% Loss (50% kill)) was over 100 µM. For the same compound, the IC100 [5, 24] was 14.1 µM, the IC50 [6, 23] was 3.19 µM and the CC50 ([6]; read-out: 50% Loss (50% kill)) was over 100 µM. For the same compound, the IC100 [6, 24] was over 100 µM, the IC50 [7, 23] was 1720 nM and the CC50 ([7]; read-out: 50% Loss (50% kill)) was over 100 µM. It also gave an IC100 [7, 24] of 5.63 µM, an IC50 [8, 23] of 1310 nM and a CC50 ([8]; read-out: 50% Loss (50% kill)) of 5.28 µM. The IC100 [8, 24] was 2.63 µM, the IC50 [9, 23] was 780 nM and the CC50 ([9]; read-out: 50% Loss (50% kill)) was 5.58 µM. It also gave an IC100 [9, 24] of 2.03 µM, an IC50 [10, 23] of 564 nM and a CC50 ([10]; read-out: 50% Loss (50% kill)) of 8.88 µM. For the same compound, the IC100 [10, 24] was 2.48 µM, the IC50 [11, 23] was 1760 nM and the CC50 ([11]; read-out: 50% Loss (50% kill)) was 6.71 µM. It also gave an IC100 [11, 24] of 3.44 µM, an IC50 [12, 23] of 1690 nM and a CC50 ([12]; read-out: 50% Loss (50% kill)) of 6.08 µM. The IC100 [12, 24] was 3.21 µM, the IC50 [13, 23] was 2720 nM and the CC50 ([13]; read-out: 50% Loss (50% kill)) was 28.3 µM. The IC100 [13, 24] was 7.21 µM, the IC50 [14, 23] was 3.15 µM and the CC50 ([14]; read-out: 50% Loss (50% kill)) was 34.9 µM. For the same compound, the IC100 [14, 24] was 9.37 µM, the IC50 [15, 23] was 3.35 µM and the CC50 ([15]; read-out: 50% Loss (50% kill)) was over 100 µM. The IC100 [15, 24] was over 100 µM, the IC50 [16, 23] was 2840 nM and the CC50 ([16]; read-out: 50% Loss (50% kill)) was 29.2 µM. For the same compound, the IC100 [16, 24] was 8.41 µM, the IC50 [17, 23] was 1720 nM and the CC50 ([17]; read-out: 50% Loss (50% kill)) was 15.5 µM. For the same compound, the IC100 [17, 24] was 4.53 µM, the IC50 [18, 23] was 1510 nM and the CC50 ([18]; read-out: 50% Loss (50% kill)) was 6.25 µM. For the same compound, the IC100 [18, 24] was 3.07 µM, the IC50 [19, 23] was 1800 nM and the CC50 ([19]; read-out: 50% Loss (50% kill)) was 8.31 µM. For the same compound, the IC100 [19, 24] was 3.87 µM, the IC50 [20, 23] was 2290 nM and the CC50 ([20]; read-out: 50% Loss (50% kill)) was 19.2 µM. The IC100 [20, 24] was 5.3 µM, the “difference between the copper-chelated and the unchelated derivative” value [21] was 10% and the “tolerated in vivo concentration relative to 100 μM in vitro” value [22] was “at least 8.5 times”. For the same compound, the “toxicity in an animal” value ([22]; in vivo, 250 mg/kg) was “not toxic” and the “tolerability in mammals compared with the brominated derivative” value ([22]; in vivo, ip) was “better tolerated”.
